# “And” between values parts separate entries of the source, which are not always exact repeats. Equal values may be shown once. Inconclusive results and toxic doses are left out.
# Tested on: BDF1 mice, P388 leukemia ip, median survival T/C
# Experiment: NCI In Vivo Anticancer Drug Screen. Data for tumor model P388 Leukemia (intraperitoneal) in B6D2F1 (BDF1) mice
# Details: endpoint: median survival time, higher = longer survival
# How it was run: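 T/C = treated-group survival ÷ vehicle-control survival; tumour transplanted into mice before dosing.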
# [1] = dose: 100.0 mg/kg/injection, schedule: Q04DX003 (ip), vehicle: Klucel (hydroxypropylcellulose) (HPC)
# [2] = dose: 200.0 mg/kg/injection, schedule: Q04DX003 (ip), vehicle: Klucel (hydroxypropylcellulose) (HPC)
# [3] = dose: 400.0 mg/kg/injection, schedule: Q04DX003 (ip), vehicle: Klucel (hydroxypropylcellulose) (HPC)
# [4] = dose: 100.0 mg/kg/injection, schedule: Q01DX009 (ip), vehicle: saline
# [5] = dose: 100.0 mg/kg/injection, schedule: Q04DX003 (ip), vehicle: saline
# [6] = dose: 200.0 mg/kg/injection, schedule: Q01DX009 (ip), vehicle: saline
# [7] = dose: 200.0 mg/kg/injection, schedule: Q04DX003 (ip), vehicle: saline
# [8] = dose: 400.0 mg/kg/injection, schedule: Q04DX003 (ip), vehicle: saline
# [9] = dose: 50.0 mg/kg/injection, schedule: Q01DX009 (ip), vehicle: saline
# [10] = dose: 12.5 mg/kg/injection, schedule: Q04DX003 (ip), vehicle: saline
# [11] = dose: 25.0 mg/kg/injection, schedule: Q04DX003 (ip), vehicle: saline
# [12] = dose: 100.0 mg/kg/injection, schedule: Q01DX009 (ip), vehicle: saline with Tween-80
# [13] = dose: 100.0 mg/kg/injection, schedule: Q04DX003 (ip), vehicle: saline with Tween-80
# [14] = dose: 200.0 mg/kg/injection, schedule: Q04DX003 (ip), vehicle: saline with Tween-80
# [15] = dose: 400.0 mg/kg/injection, schedule: Q04DX003 (ip), vehicle: saline with Tween-80
# [16] = dose: 50.0 mg/kg/injection, schedule: Q01DX009 (ip), vehicle: saline with Tween-80
# [17] = dose: 200.0 mg/kg/injection, schedule: Q01DX009 (ip), vehicle: saline with Tween-80
structure (smiles),measurement,setting,value
CN(Cc1cnc2nc(N)nc(N)c2n1)c1ccc(C(=O)NC(CCC(=O)O)C(=O)O)cc1Br (configuration not stated),T/C,"dose: 0.35 mg/kg/injection, schedule: Q01DX009 (ip), vehicle: saline",231 % of control
same,T/C,"dose: 0.7 mg/kg/injection, schedule: Q01DX009 (ip), vehicle: saline",259 % of control
same,T/C,"dose: 13.2 mg/kg/injection, schedule: Q04DX003 (ip), vehicle: saline with Tween-80",250 % of control
O=C(O)COCc1ccccc1,T/C,"dose: 100.0 mg/kg/injection, schedule: Q01DX001 (ip), vehicle: saline sonified",100 % of control
same,T/C,"dose: 200.0 mg/kg/injection, schedule: Q01DX001 (ip), vehicle: saline sonified",104 % of control
same,T/C,"dose: 400.0 mg/kg/injection, schedule: Q01DX001 (ip), vehicle: saline sonified",117 % of control
COC(=O)c1ccccc1NC(=O)NCCBr,T/C,[1],90 % of control
same,T/C,[2],100 % of control
same,T/C,[3],104 % of control
C/C(CCC(=O)O)=N/O,T/C,[4],110 % of control
same,T/C,[5],104 % of control
same,T/C,[6],120 % of control
same,T/C,[7],108 % of control
same,T/C,[8],116 % of control
CN(C)NCCC#N,T/C,[9],100 % of control
same,T/C,"dose: 66.0 mg/kg/injection, schedule: Q01DX009 (ip), vehicle: saline",111 % of control
same,T/C,"dose: 75.0 mg/kg/injection, schedule: Q01DX009 (ip), vehicle: saline",117 % of control
same,T/C,[4],100 % of control and 111 % of control
same,T/C,"dose: 150.0 mg/kg/injection, schedule: Q01DX009 (ip), vehicle: saline",118 % of control
same,T/C,[6],86 % of control
N#Cc1cn(C2OC(CO)C(O)C2O)c2nc(Cl)nc(N)c12 (configuration not stated),T/C,"dose: 6.25 mg/kg/injection, schedule: Q04DX003 (ip), vehicle: saline",112 % of control
same,T/C,[10],166 % of control
same,T/C,[11],166 % of control
COc1cccc2c1C(=O)c1c(O)c3c(c(O)c1C2=O)CC(O)(/C(C)=N/NC(=O)c1cc(C(F)(F)F)cc(C(F)(F)F)c1)CC3OC1CC(N)C(O)C(C)O1 (configuration not stated),T/C,"dose: 3.13 mg/kg/injection, schedule: Q04DX003 (ip), vehicle: water",113 % of control
same,T/C,"dose: 6.25 mg/kg/injection, schedule: Q04DX003 (ip), vehicle: water",109 % of control
same,T/C,"dose: 12.5 mg/kg/injection, schedule: Q04DX003 (ip), vehicle: water",153 % of control
same,T/C,"dose: 25.0 mg/kg/injection, schedule: Q04DX003 (ip), vehicle: water",153 % of control
same,T/C,"dose: 50.0 mg/kg/injection, schedule: Q04DX003 (ip), vehicle: water",118 % of control
Cc1cc(C)c(OC(=O)CNC(=O)C(C)NC(=O)OC(C)(C)C)c(C)c1 (configuration not stated),T/C,"dose: 50.0 mg/kg/injection, schedule: Q01DX005 (ip), vehicle: Klucel (hydroxypropylcellulose) (HPC)",91 % of control
same,T/C,"dose: 100.0 mg/kg/injection, schedule: Q01DX005 (ip), vehicle: Klucel (hydroxypropylcellulose) (HPC)",97 % of control
same,T/C,"dose: 200.0 mg/kg/injection, schedule: Q01DX005 (ip), vehicle: Klucel (hydroxypropylcellulose) (HPC)",91 % of control
CNC(C)(C)CO,T/C,[4],105 % of control
same,T/C,[5],104 % of control
same,T/C,[6],115 % of control
same,T/C,[7],95 % of control
same,T/C,[8],95 % of control
CC1=NN(c2ccc(S(=O)(=O)O)cc2)C(=O)/C1=C/c1ccc(Cl)cc1,T/C,[9],92 % of control
same,T/C,[4],90 % of control
CC(C)NCC(=O)c1ccc(O)c(O)c1,T/C,[12],109 % of control
same,T/C,[13],100 % of control
same,T/C,[14],100 % of control
same,T/C,[15],100 % of control
CN1CCN(c2nc3ccccc3n3nnnc23)CC1,T/C,"dose: 18.75 mg/kg/injection, schedule: Q01DX009 (ip), vehicle: saline with Tween-80",103 % of control
same,T/C,"dose: 37.5 mg/kg/injection, schedule: Q01DX009 (ip), vehicle: saline with Tween-80",100 % of control
CSc1nc(Cl)cc(N2CC2)n1,T/C,"dose: 0.19 mg/kg/injection, schedule: Q04DX003 (ip), vehicle: saline",104 % of control
same,T/C,"dose: 0.39 mg/kg/injection, schedule: Q01DX009 (ip), vehicle: saline",95 % of control
same,T/C,"dose: 0.39 mg/kg/injection, schedule: Q04DX003 (ip), vehicle: saline",109 % of control
same,T/C,"dose: 0.5 mg/kg/injection, schedule: Q01DX009 (ip), vehicle: saline",91 % of control
same,T/C,"dose: 0.78 mg/kg/injection, schedule: Q01DX009 (ip), vehicle: saline",100 % of control
same,T/C,"dose: 0.78 mg/kg/injection, schedule: Q04DX003 (ip), vehicle: saline",100 % of control
same,T/C,"dose: 1.0 mg/kg/injection, schedule: Q01DX009 (ip), vehicle: saline",116 % of control
same,T/C,"dose: 2.0 mg/kg/injection, schedule: Q01DX009 (ip), vehicle: saline",95 % of control
same,T/C,"dose: 3.6 mg/kg/injection, schedule: Q04DX003 (ip), vehicle: saline",100 % of control
NC(=O)c1nccnc1Cl,T/C,[16],110 % of control
same,T/C,"dose: 50.0 mg/kg/injection, schedule: Q04DX003 (ip), vehicle: saline with Tween-80",101 % of control
same,T/C,[12],98 % of control
same,T/C,[13],102 % of control and 111 % of control
same,T/C,[17],91 % of control
same,T/C,[14],88 % of control and 104 % of control
same,T/C,[15],92 % of control and 101 % of control
O=C1N=C(C(F)(F)F)N=C1c1[nH]c(C(F)(F)F)nc1O,T/C,[16],111 % of control
same,T/C,[12],102 % of control
same,T/C,[13],100 % of control
same,T/C,[17],102 % of control
same,T/C,[14],102 % of control
same,T/C,"dose: 400.0 mg/kg/injection, schedule: Q01DX009 (ip), vehicle: saline with Tween-80",116 % of control
same,T/C,[15],98 % of control
Nc1nc2nc(-c3ccccc3)nc(N)c2nc1Sc1ccc(Cl)cc1,T/C,[13],94 % of control
same,T/C,[14],103 % of control
same,T/C,[15],103 % of control
CC(C(=O)c1cccs1)C(O)(C(F)(F)F)C(F)(F)F (configuration not stated),T/C,[1],91 % of control
same,T/C,[2],91 % of control
CC(=O)CC(=O)Nc1nc2ccccc2s1,T/C,[9],94 % of control
same,T/C,[6],105 % of control
Cc1cc(C)c2cc3cccc[n+]3cc2c1,T/C,"dose: 4.0 mg/kg/injection, schedule: Q01DX010 (ip), vehicle: carboxymethylcellulose (CMC)",115 % of control
Nc1ccn(C2OC(CO)C(O)C2O)c(=O)c1 (configuration not stated),T/C,"dose: 25.0 mg/kg/injection, schedule: Q01DX009 (ip), vehicle: saline",93 % of control
same,T/C,[9],95 % of control
same,T/C,[4],112 % of control
same,T/C,[6],102 % of control
CN(N)c1cc(=O)n(C)c(=O)n1C,T/C,[5],110 % of control
same,T/C,[7],103 % of control
same,T/C,[8],101 % of control
CC(Cl)CN(Cc1cc(O)c(CN(CC(C)Cl)CC(C)Cl)cc1O)CC(C)Cl (configuration not stated),T/C,[1],118 % of control
same,T/C,"dose: 264.0 mg/kg/injection, schedule: Q04DX003 (ip), vehicle: Klucel (hydroxypropylcellulose) (HPC)",91 % of control
same,T/C,"dose: 264.0 mg/kg/injection, schedule: Q04DX003 (ip), vehicle: saline",113 % of control
same,T/C,[3],154 % of control
same,T/C,[8],109 % of control
COc1ccc(C=NCCN=Cc2ccc(OC)cc2)cc1,T/C,"dose: 100.0 mg/kg/injection, schedule: Q01DX001 (ip), vehicle: Klucel (hydroxypropylcellulose) (HPC)",109 % of control
same,T/C,"dose: 200.0 mg/kg/injection, schedule: Q01DX001 (ip), vehicle: Klucel (hydroxypropylcellulose) (HPC)",100 % of control
same,T/C,"dose: 400.0 mg/kg/injection, schedule: Q01DX001 (ip), vehicle: Klucel (hydroxypropylcellulose) (HPC)",95 % of control
CCOCCOCCOc1nc(F)c(Cl)cc1Cl,T/C,[13],100 % of control
same,T/C,[14],118 % of control
NCCc1ccc(OCc2ccccc2)c(OCc2ccccc2)c1,T/C,"dose: 8.0 mg/kg/injection, schedule: Q01DX009 (ip), vehicle: saline",100 % of control
same,T/C,"dose: 12.0 mg/kg/injection, schedule: Q01DX009 (ip), vehicle: saline",104 % of control
same,T/C,[10],104 % of control
same,T/C,"dose: 18.0 mg/kg/injection, schedule: Q01DX009 (ip), vehicle: saline",116 % of control
same,T/C,[11],104 % of control
same,T/C,"dose: 50.0 mg/kg/injection, schedule: Q04DX003 (ip), vehicle: saline",100 % of control
COc1cccc2c1C(=O)c1c(O)c3c(c(O)c1C2=O)CC(O)(C(=O)C(C)C)CC3OC1CC(N)C(O)C(C)O1 (configuration not stated),T/C,"dose: 9.4 mg/kg/injection, schedule: Q04DX003 (ip), vehicle: water",107 % of control
same,T/C,"dose: 18.8 mg/kg/injection, schedule: Q04DX003 (ip), vehicle: water",107 % of control
same,T/C,"dose: 37.5 mg/kg/injection, schedule: Q04DX003 (ip), vehicle: water",116 % of control
same,T/C,"dose: 75.0 mg/kg/injection, schedule: Q04DX003 (ip), vehicle: water",90 % of control

# From PubChem BioAssay AID328 (DTP/NCI, 2004)
